Measured values taken from article PMC10302582, “Unveiling the Potential of BenzylethyleneAryl–Urea Scaffolds for the Design of New Onco Immunomodulating Agents” (Pharmaceuticals, 2023).
Read-outs that look alike come from different tables or passages of the source.

Assays:
[1] = test system: HT-29 (colon adenocarcinoma); experiment: MTT cell proliferation assay, HT-29; assay type: cell-based; conditions: Homo sapiens, read-out: IC50 HT-29
Method: (§1) After the supernatant was discarded, we solved the formazan crystal in 100 µL of DMSO. The absorbance was then registered at 550 nm using a plate lector. For all concentrations of any compound, cell viability was expressed as the percentage of the ratio between the mean absorbance of the treated cells and the mean absorbance of the untreated cells. Three to five experiments were performed to establish the IC50 values (i.e., concentration half inhibiting cell proliferation, we used GraphPad Prism 7 software).

[2] = test system: A-549 (pulmonary adenocarcinoma); experiment: MTT cell proliferation assay, A-549; assay type: cell-based; conditions: Homo sapiens, read-out: IC50 A-549
Method: as §1

[3] = test system: HEK-293 (human embryonic kidney cells); experiment: MTT cell proliferation assay, HEK-293; assay type: cell-based; conditions: HEK293, 48 h treatment
Method: (§2) The action on cell proliferation caused by our developed compounds was studied using an MTT assay using the human tumor cell lines of HT-29 (colon adenocarcinoma) and A-549 (pulmonary adenocarcinoma), as well as toward the non-tumor cell line HEK-293 (human embryonic kidney cells), Jurkat T-cells and human microvessel endothelial cells (HMEC-1).
(§3) In general, 5 × 10^3 (HT-29, A549, HMEC-1, Jurkat and HEK-293) cells per well were seeded in 96-well plates with 1:1 dilutions of the compounds in a volume of 100 μL of the cell media. The 3-(4,5-dimethylthiazol-2-yl)-2,5-diphenyltetrazolium bromide (MTT; Sigma Chemical Co.) dye exclusion assay was performed, and after 48 h (37 °C, 5% CO2 in a humid atmosphere), 10 μL of MTT (5 mg/mL in phosphate-buffered saline, PBS) was added to each well and incubated for 3 h at 37 °C. After the supernatant was discarded, we solved the formazan crystal in 100 µL of DMSO. The absorbance was then registered at 550 nm using a plate lector. For all concentrations of any compound, cell viability was expressed as the percentage of the ratio between the mean absorbance of the treated cells and the mean absorbance of the untreated cells. Three to five experiments were performed to establish the IC50 values (i.e., concentration half inhibiting cell proliferation, we used GraphPad Prism 7 software).

[4] = test system: human microvessel endothelial cells (HMEC-1); experiment: MTT cell proliferation assay, HMEC-1; assay type: cell-based; conditions: Homo sapiens
Method: as §2, §3

VEGFR-2 = target: T1, VEGFR-2 (Homo sapiens, UniProt P35968); experiment: VEGFR-2 relative quantification by flow cytometry in HT-29 cells; assay type: cell-based; conditions: for total VEGFR-2 (%) expression: HT-29 cells, 24 h, relative to DMSO control = 100
T1 construct: assess the effect of our new ureas on these two proteins only on the HT-29 cancer cell line through the use of flow cytometry; endogenous in cells; host or cells: HT-29
Method: The cells were incubated for a period of time of one day with doses of each of the selected compounds at two different doses: 20 and 100 µM concentrations.
The effects of the compounds on the target in the cancer cell lines compounds were tested using 20 and 100 µM doses. For that, 10^5 cells per well were seeded on a 12-well plate for 24 h with the corresponding dose of the tested compound in a total volume of 500 μL of cell media. To determine the total PD-L1 and VEGFR-2, the cells were collected and fixed with 4% in a PBS of formaldehyde. After this, a treatment with 0.5% in PBS Triton^TM X-100 permeabilized the membranes.
To determine surface PD-L1 and VEGFR-2, the assay used was similar to the above but avoided the permeabilization step (Triton^TM X-100).

HMEC-1 endothelial cells = experiment: Microvessel formation inhibition assay on Matrigel; assay type: cell-based, human; conditions: HMEC-1 on Matrigel
Method: The antiangiogenic action of the selected compounds, as well as the reference compounds, was evaluated by determining the effect on the formation of new microvessels formed by HMEC-1 endothelial cells on a Matrigel matrix.
We used IBIDI μ-slide angiogenesis plates (IBIDI, Martins ried, Germany). The wells were coated with 15 μL of Matrigel® (10 mg/mL, BD Biosciences, San Jose, CA, USA) at 4 °C and incubated at 37 °C for at least 30 min. Afterward, the HMEC-1 cells were seeded at 2 × 10^4 cells/well in 25 μL of medium and were left for 30 min at 37 °C while they attached. Then, the compounds were added in serial doses in 25 μL of the medium, and after several hours (maximum 24 h) of incubation at 37 °C, pictures for the wells were taken to evaluate the formation of microvessels.

[5] = test system: HT-29 cells co-cultured with THP-1; experiment: Cancer cell proliferation in co-cultures of HT-29 and THP-1; assay type: cell-based, human; conditions: 100 μM
Method: To establish the potential of the selected compounds as immunomodulator agents, we studied the effect of the selected compounds on HT-29 cell proliferation when co-cultured with human monocytic leukemia cell line THP-1. For the study, we used different proportions of cancer and immune cells. Standard protocol proportions were 1:5 cancer/immune cells. We include a test using a 2:1 proportion of HT-29 cells to THP-1 cells. The tests were performed for two periods of time: 24 and 48 h, using 100 μM doses of the selected compounds and BMS-8 as the reference compound.
To determine the action of the compounds on cancer cell proliferation in co-culture with immune cells, 10^5 or 2 × 10^5 of the HT-29 cells line were seeded in each well of 12-well plates and left at 37 °C for 24 h. Then, the cancer cells were treated with IFN-γ (10 ng/mL; human, Invitrogen®, Waltham, MA, USA) containing 5 × 10^5 or 10^5, respectively, of THP-1 cells per well and the corresponding compound at 100 μM or DMSO for the positive control. After 24 h/48 h of incubation, the supernatants were collected to establish the alive THP-1 cells using FSC and SCC flow cytometry. In addition, cancer cells were collected with trypsin, fixed with 4% in PBS paraformaldehyde and counted using flow cytometry.

CD11b = CD11b detection on membrane of co-cultured THP-1; assay type: cell-based, human; conditions: for % CD11b expression in membrane of THP-1: 1:5 HT-29/THP-1, 24 h, relative to non-treated co-cultured THP-1; for reduction of CD11b expression: THP-1 co-cultured with HT-29
Text: Reducing the expression of CD11b has become a promising target for immune modulation in anticancer therapies. For that reason, we decided to study the effect of our compounds on CD11b in THP-1 cells co-cultured with HT-29. We also determined the relative amount of CD80, a common surface marker for monocytes.
The results are related to non-treated THP-1 cells when they were co-cultured with HT-29.
The action of the compounds on CDs in co-cultured THP-1 immune cells with cancer cell line HT-29 was tested by treating them with the compounds for 24 h/48 h (see Section 4.2.5). Surface CD11b and CD80 was determined by collecting THP-1 with trypsin, fixing with formaldehyde and staining with FITC Mouse monoclonal Anti-Human CD80 (Sigma-Aldrich SAB4700142) and Alexa Fluor® 647 Rabbit monoclonal Anti-CD11b (Merck #MABF366, Rahway, NJ, USA).

T1 sequence (P35968 20-1356): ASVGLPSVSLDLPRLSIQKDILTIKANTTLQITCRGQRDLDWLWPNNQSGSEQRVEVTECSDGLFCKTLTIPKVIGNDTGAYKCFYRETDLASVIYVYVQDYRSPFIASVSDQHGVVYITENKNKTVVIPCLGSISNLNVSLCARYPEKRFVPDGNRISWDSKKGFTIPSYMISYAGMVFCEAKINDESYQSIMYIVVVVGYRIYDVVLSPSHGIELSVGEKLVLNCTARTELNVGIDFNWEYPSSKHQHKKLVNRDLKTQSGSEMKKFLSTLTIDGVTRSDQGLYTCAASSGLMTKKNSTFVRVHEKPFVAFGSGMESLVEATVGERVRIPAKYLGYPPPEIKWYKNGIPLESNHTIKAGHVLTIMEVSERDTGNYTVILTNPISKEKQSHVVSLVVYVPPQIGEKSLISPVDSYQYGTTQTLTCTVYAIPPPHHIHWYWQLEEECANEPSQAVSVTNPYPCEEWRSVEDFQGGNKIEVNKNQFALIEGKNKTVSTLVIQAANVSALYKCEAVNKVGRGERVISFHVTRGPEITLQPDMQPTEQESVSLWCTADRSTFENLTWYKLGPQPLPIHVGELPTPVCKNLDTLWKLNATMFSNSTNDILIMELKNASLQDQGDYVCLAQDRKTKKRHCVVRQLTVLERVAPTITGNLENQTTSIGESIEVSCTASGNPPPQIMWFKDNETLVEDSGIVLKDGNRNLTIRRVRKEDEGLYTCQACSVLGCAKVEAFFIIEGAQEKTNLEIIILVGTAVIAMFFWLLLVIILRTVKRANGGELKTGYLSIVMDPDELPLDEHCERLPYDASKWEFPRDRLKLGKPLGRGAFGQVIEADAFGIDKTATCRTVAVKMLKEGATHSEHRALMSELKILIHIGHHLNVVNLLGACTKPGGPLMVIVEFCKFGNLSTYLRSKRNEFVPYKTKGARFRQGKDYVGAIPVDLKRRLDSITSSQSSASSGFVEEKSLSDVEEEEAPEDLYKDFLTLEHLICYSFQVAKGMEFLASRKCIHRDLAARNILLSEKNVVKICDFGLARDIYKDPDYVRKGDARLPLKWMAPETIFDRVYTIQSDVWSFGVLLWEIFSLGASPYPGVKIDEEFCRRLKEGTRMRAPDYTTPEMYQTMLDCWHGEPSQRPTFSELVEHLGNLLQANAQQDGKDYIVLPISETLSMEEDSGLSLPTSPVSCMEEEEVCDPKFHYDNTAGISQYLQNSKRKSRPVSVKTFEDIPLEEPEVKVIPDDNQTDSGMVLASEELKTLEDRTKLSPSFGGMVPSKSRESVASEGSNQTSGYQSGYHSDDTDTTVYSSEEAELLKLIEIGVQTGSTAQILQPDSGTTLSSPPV

| total VEGFR-2 (%) expression (VEGFR-2; 20 μM) [%] | total VEGFR-2 (%) expression (VEGFR-2; 100 μM) [%] | IC50 ([1]; HT-29, MTT, 48 h treatment) [µM] | IC50 ([2]; A549, MTT, 48 h treatment) [µM] | inhibition rate of VEGFR-2 (VEGFR-2; HT-29, total VEGFR-2, dose not stated) | Compound | IC50 ([1]; HT-29, 48 h) [µM] | IC50 ([2]; A549, 48 h) [µM] | IC50 [3] [µM] | IC50 ([4]; HMEC-1, 48 h treatment) [µM] | Minimum Active Conc. inhibiting microtube formation (HMEC-1 endothelial cells) [µM] | HT-29 cancer cell proliferation in co-culture ([5]; 1:5 HT-29/THP-1, 24 h) | HT-29 cancer cell proliferation in co-culture ([5]; 1:5 HT-29/THP-1, 48 h) | HT-29 cancer cell proliferation in co-culture ([5]; 2:1 HT-29/THP-1, 24 h) | HT-29 cancer cell proliferation in co-culture ([5]; 2:1 HT-29/THP-1, 48 h) | % CD11b expression in membrane of THP-1 (CD11b) [%] | IC50 ([4]; HMEC-1, 48 h, 48 h treatment) [µM] | reduction of CD11b expression (CD11b) |
| --- | --- | --- | --- | --- | --- | --- | --- | --- | --- | --- | --- | --- | --- | --- | --- | --- | --- |
| 38 ± 7 | 40 ± 7 | > 100 | > 100 |  | COc1ccc(CCCc2cccc(NC(=O)Nc3ccc(F)cc3)c2)cc1 [C.3] |  |  | > 100 |  | 50 | 78 ± 8 | 64 ± 3 | 67 ± 9 | 57 ± 5 | 67 ± 22 | > 100 | about 35% |
| 30 ± 10 | 65 ± 45 | > 100 | 1.2 ± 0.2 | around 75% | COc1ccc(CCCc2cccc(NC(=O)Nc3ccc(OC)cc3)c2)cc1 [C.12] |  |  | > 100 |  | 20 | 84 ± 2 | 67 ± 11 | 93 ± 8 | 89 ± 10 | 73 ± 4 | > 100 |  |
| 228 ± 66 | 32 ± 9 | > 100 | > 100 |  | COc1ccc(CCCc2cccc(NC(=O)Nc3ccccc3OC)c2)cc1 [C.14] |  |  | > 100 |  | >100 | 64 ± 14 | 68 ± 8 | 82 ± 7 | 58 ± 5 | 66 ± 3 | > 100 | about 35% |

| Compound | total VEGFR-2 (%) expression (VEGFR-2; 20 μM) [%] | total VEGFR-2 (%) expression (VEGFR-2; 100 μM) [%] | IC50 ([1]; HT-29, MTT, 48 h treatment) [µM] | IC50 ([2]; A549, MTT, 48 h treatment) [µM] | inhibition rate of VEGFR-2 (VEGFR-2; HT-29, total VEGFR-2, dose not stated) | IC50 ([1]; HT-29, 48 h) [µM] | IC50 ([2]; A549, 48 h) [µM] | IC50 [3] [µM] | IC50 ([4]; HMEC-1, 48 h treatment) [µM] | Minimum Active Conc. inhibiting microtube formation (HMEC-1 endothelial cells) [µM] | HT-29 cancer cell proliferation in co-culture ([5]; 1:5 HT-29/THP-1, 24 h) | HT-29 cancer cell proliferation in co-culture ([5]; 1:5 HT-29/THP-1, 48 h) | HT-29 cancer cell proliferation in co-culture ([5]; 2:1 HT-29/THP-1, 24 h) | HT-29 cancer cell proliferation in co-culture ([5]; 2:1 HT-29/THP-1, 48 h) | % CD11b expression in membrane of THP-1 (CD11b) [%] | IC50 ([4]; HMEC-1, 48 h, 48 h treatment) [µM] | reduction of CD11b expression (CD11b) |
| --- | --- | --- | --- | --- | --- | --- | --- | --- | --- | --- | --- | --- | --- | --- | --- | --- | --- |
| COc1ccc(CCCc2cccc(NC(=O)Oc3ccccc3)c2)cc1 [C.1] | 51 ± 10 | 191 ± 87 |  |  |  | > 100 | > 100 | > 100 | > 100 | 5 | 48 ± 8 | 52 ± 3 | 70 ± 8 | 66 ± 8 | 79 ± 9 |  |  |
